The test system of data set [1] is Botryotinia fuckeliana (Botrytis cinerea). The data set is described as follows: Botryotinia fuckeliana (Botrytis cinerea) / liquid culture (Gray mould). It counts as cell-based. The note with it: growth inhibition photometrically 3-4 days after application, compared to untreated control.
In data set [2] the test system is Glomerella lagenarium (Colletotrichum lagenarium). The data set is described as follows: Glomerella lagenarium (Colletotrichum lagenarium) / liquid culture (Anthracnose). Format: cell-based. The note with it: Colletotrichum orbiculare, growth inhibition photometrically 3-4 days after application, compared to untreated control.
Data set [3] concerns Monographella nivalis (Microdochium nivale). Put plainly: Monographella nivalis (Microdochium nivale) / liquid culture (foot rot cereals). Format: cell-based. The note with it: 96 h, growth inhibition photometrically 4-5 days after application, compared to untreated control.
Data set [4] relates to Mycosphaerella graminicola (Septoria tritici). The data set is described as follows: Mycosphaerella graminicola (Septoria tritici) / liquid culture (Septoria blotch). Format: cell-based. The note with it: Zymoseptoria tritici, growth inhibition photometrically 4-5 days after application, compared to untreated control.
In data set [5] the test system is Fusarium culmorum. The data set is described as follows: microbe, parasite or virus in culture. It counts as cell-based. The note with it: read-out: control of Fusarium culmorum.
Data set [6] deals with Gaeumannomyces graminis. The data set is described as follows: Gaeumannomyces graminis / liquid culture (Take-all of cereals). Format: cell-based. Particulars: growth inhibition photometrically 4-5 days after application, compared to untreated control.
Data set [7] relates to Magnaporthe grisea (Pyricularia oryzae). Put plainly: whole plant or invertebrate. It counts as in vivo. The note with it: foliar, read-out: control of Magnaporthe grisea.
For data set [8] the test system is unchanged. Put plainly: microbe, parasite or virus in culture. Format: cell-based. Particulars: read-out: control of Magnaporthe grisea.
Data set [9] concerns Sclerotinia sclerotiorum. Put plainly: Sclerotinia sclerotiorum / liquid culture (cottony rot). Particulars: read-out: control of Sclerotinia sclerotiorum.
Experimental: Sclerotinia sclerotiorum/Liquid Culture (Cottony Rot)
Mycelia fragments of a newly grown liquid culture of the fungus are directly mixed into 5 nutrient broth (Vogels broth). After placing a (DMSO) solution of test compound into a microtiter plate (96-well format) the nutrient broth containing the fungal material is added. The test plates are incubated at 24° C. and the inhibition of growth is determined photometrically 3-4 days after application.

The results in this text go back to patent publication US10906897B2, “Microbiocidal heterobicyclic derivatives” (priority 2015, dated 2021).

For `CC1(C)N=C(c2cnc3c(C4CC4)cccn23)c2cccc(F)c2C1(C)C` [Compound E-22, 1-(8-cyclopropylimidazo[1,2-a]pyridin-3-yl)-5-fluoro-3,3,4,4-tetramethyl-isoquinoline], the inhibition of growth at 20 ppm in [1], in data set [2], in data set [3] and in data set [4] was ≥ 80% in each case.

`Cc1cccn2c(C3=NC(C)(C)C(F)(F)c4c(F)cccc43)cnc12` [Compound E-39, 4,4,5-trifluoro-3,3-dimethyl-1-(8-methylimidazo[1,2-a]pyridin-3-yl)isoquinoline]: the inhibition of growth at 20 ppm in [1], in data set [2], in [5], in data set [6], in data set [3] and in data set [4] was ≥ 80% throughout. The pest or weed control at 200 ppm in [7] was ≥ 50%.

Regarding `CC1(C)N=C(c2cnc3cc(I)ccn23)c2cccc(F)c2C1(C)C` [Compound E-44, 5-fluoro-1-(7-iodoimidazo[1,2-a]pyridin-3-yl)-3,3,4,4-tetramethyl-isoquinoline], the inhibition of growth at 20 ppm in [1], in data set [2], in data set [5], in data set [3] and in data set [4] was ≥ 80% in each case.

Usually melting point stands for the temperature of the solid-liquid transition. Consider `Cc1ccn2c(C3=NC(C)(C)C(F)(F)c4ccccc43)cnc2c1C` [Compound E-57, 1-(7,8-dimethylimidazo[1,2-a]pyridin-3-yl)-4,4-difluoro-3,3-dimethyl-isoquinoline], for which the melting point was 159 to 161 °C. The inhibition of growth at 20 ppm in [1] was ≥ 80%. Moreover, the inhibition of growth at 20 ppm in data set [2] is ≥ 80%. In addition, the inhibition of growth at 20 ppm in [5] was ≥ 80%. Further, the inhibition of growth at 20 ppm in data set [3] is ≥ 80%. Besides, the pest or weed control at 200 ppm in [7] is ≥ 50%. The inhibition of growth at 60 ppm in data set [8] is ≥ 80%. Also, in data set [9], the inhibition of growth at 20 ppm was ≥ 80%.

In turn, `Cc1ccc2c(C3=NC(C)(C)C(=O)c4ccccc43)cnn2c1C` [Compound E-64, 1-(6,7-dimethylpyrazolo[1,5-a]pyridin-3-yl)-3,3-dimethyl-isoquinolin-4-one] yielded a melting point of 152 to 153 °C. In addition, in data set [1], the inhibition of growth at 20 ppm was ≥ 80%. Also, the inhibition of growth at 20 ppm in data set [2] was ≥ 80%. In addition, the inhibition of growth at 20 ppm in data set [5] was ≥ 80%. Besides, the inhibition of growth at 20 ppm in [6] is ≥ 80%. Moreover, the inhibition of growth at 20 ppm in [3] was ≥ 80%. In data set [8], the inhibition of growth at 60 ppm was ≥ 80%. For the same molecule, the inhibition of growth at 20 ppm in [9] is ≥ 80%.

Consider `Cc1ccc2c(C3=NC(C)(C)C(F)(F)c4ccccc43)cnn2c1C` [Compound E-65, 1-(6,7-dimethylpyrazolo[1,5-a]pyridin-3-yl)-4,4-difluoro-3,3-dimethyl-isoquinoline], for which the inhibition of growth at 20 ppm in [1], in data set [2], in data set [5], in data set [6], in data set [3] and in [9] was ≥ 80% each time. In addition, the inhibition of growth at 60 ppm in [8] was ≥ 80%.

Take `Cc1cccc2c(C3=NC(C)(C)C(F)(F)c4ccccc43)cnn12` [Compound E-66, 4,4-difluoro-3,3-dimethyl-1-(7-methylpyrazolo[1,5-a]pyridin-3-yl)isoquinoline]: the inhibition of growth at 20 ppm in data set [1], in data set [2], in data set [5], in [6], in data set [3] and in data set [9] was ≥ 80% in each case. Moreover, in data set [7], the pest or weed control at 200 ppm was ≥ 50%. Also, the inhibition of growth at 60 ppm in data set [8] is ≥ 80%.

For the molecule `Cc1cccn2ncc(C3=NC(C)(C)C(F)(F)c4ccccc43)c12` [Compound E-69, 4,4-difluoro-3,3-dimethyl-1-(4-methylpyrazolo[1,5-a]pyridin-3-yl)isoquinoline], the melting point lay within 113 to 114 °C. The inhibition of growth at 20 ppm in data set [1] was ≥ 80%. Besides, in [2], the inhibition of growth at 20 ppm was ≥ 80%. In data set [5], the inhibition of growth at 20 ppm was ≥ 80%. Also, in data set [6], the inhibition of growth at 20 ppm is ≥ 80%. Further, in [3], the inhibition of growth at 20 ppm is ≥ 80%. For the same molecule, in [7], the pest or weed control at 200 ppm was ≥ 50%. For the same molecule, the inhibition of growth at 60 ppm in [8] is ≥ 80%. Moreover, the inhibition of growth at 20 ppm in [9] is ≥ 80%.

Take `Cc1ccc2c(C3=NC(C)(C)C(F)(F)c4cc(F)ccc43)cnn2c1C` [Compound E-70, 1-(6,7-dimethylpyrazolo[1,5-a]pyridin-3-yl)-4,4,6-trifluoro-3,3-dimethyl-isoquinoline]: the inhibition of growth at 20 ppm in data set [1], in data set [2], in data set [5], in data set [3] and in data set [9] was ≥ 80% throughout. In data set [7], the pest or weed control at 200 ppm was ≥ 50%. Besides, the inhibition of growth at 60 ppm in [8] is ≥ 80%.

As for `Cc1ccc2c(C3=NC(C)(C)C(F)(F)c4c(F)cccc43)cnn2c1C` [Compound E-71, 1-(6,7-dimethylpyrazolo[1,5-a]pyridin-3-yl)-4,4,5-trifluoro-3,3-dimethyl-isoquinoline], the inhibition of growth at 20 ppm in [1], in [2], in data set [5], in data set [6], in data set [3] and in [9] was ≥ 80% in each case. In addition, in data set [7], the pest or weed control at 200 ppm is ≥ 50%. Further, the inhibition of growth at 60 ppm in data set [8] is ≥ 80%.

`CC1(C)N=C(c2cnn3ccccc23)c2ccccc2C1(F)F` [Compound E-80, 4,4-difluoro-3,3-dimethyl-1-pyrazolo[1,5-a]pyridin-3-yl-isoquinoline] registered a melting point of 78 to 82 °C. For the same molecule, the inhibition of growth at 20 ppm in data set [1] is ≥ 80%. Further, in [2], the inhibition of growth at 20 ppm is ≥ 80%. The inhibition of growth at 20 ppm in data set [5] was ≥ 80%. Also, the inhibition of growth at 20 ppm in data set [6] was ≥ 80%. For the same molecule, the inhibition of growth at 20 ppm in data set [3] was ≥ 80%. The inhibition of growth at 20 ppm in data set [4] is ≥ 80%. Also, the inhibition of growth at 60 ppm in data set [8] was ≥ 80%. Further, the inhibition of growth at 20 ppm in [9] was ≥ 80%.

Molecule `Cc1c(Cl)ccc2c(C3=NC(C)(C)C(F)(F)c4ccccc43)cnn12` [Compound E-91, 1-(6-chloro-7-methyl-pyrazolo[1,5-a]pyridin-3-yl)-4,4-difluoro-3,3-dimethyl-isoquinoline] registered a melting point of 166 to 168 °C. Further, the inhibition of growth at 20 ppm in data set [1] is ≥ 80%. Besides, in data set [2], the inhibition of growth at 20 ppm was ≥ 80%. Moreover, the inhibition of growth at 20 ppm in [5] was ≥ 80%. The inhibition of growth at 20 ppm in data set [6] is ≥ 80%. In data set [3], the inhibition of growth at 20 ppm was ≥ 80%. Further, in [7], the pest or weed control at 200 ppm was ≥ 50%. In addition, in data set [8], the inhibition of growth at 60 ppm is ≥ 80%. In addition, in [9], the inhibition of growth at 20 ppm was ≥ 80%.
